“And” between values parts separate entries of the source, which are not always exact repeats. Equal entries are not always repeated.
Experiments:
Type in all cases: in vivo
cardiovasculature = assay: adverse effects on the cardiovasculature after topical administration; settings: large doses administered topically to the skin
[1] = system: oxazolone induced contact dermatitis (erythema); assay: Test C: oxazolone induced contact dermatitis in the domestic pig
Method: (c) in a standard test involving oxazolone induced contact dermatitis in the domestic pig (Test C).
Method: Domestic pigs were sensitised by topical application of 0.4 ml of a 10% w/v solution of oxazolone in acetone to the neck region on two occasions two weeks apart. Six paired sites were then prepared and delineated with one site from each pair to the left and one to the right of the mid-line of the back of the animal. […] The left hand site of the second three pairs was similarly treated with 0.05 ml of a second solution of the test compound in acetone at pH 5. All of the righthand sites were used as controls and were treated with 0.05 ml of acetone (acidified to pH 5 with citric acid). After 24 hours, the same treatment was repeated followed immediately by a challenge of 0.025 ml of a 1% w/v solution of oxazolone in acetone to the 1st and 4th pairs of sites, of 5% w/v solution of oxazolone in acetone to the 2nd and 5th pair of sites, and of 10% w/v solution of oxazolone in acetone to the 3rd and 6th pairs of sites. […] An inflammatory index was obtained by multiplying the area and erythema readings together. By comparison of the values for the treated and control sites, the percentage reduction in erythema of the test compound could be assessed.

[2] = system: inflammation on the mouse ear induced by the irritant, croton oil; assay: Test A: inhibition of inflammation on the mouse ear induced by croton oil; settings: for % Inhibition / % increase in ear weight ± SEM / ED50 application rate: topical; for % Inhibition / % increase in ear weight ± SEM: 4 hours; for ED50 application rate: Test A; for activity as topical anti-inflammatory agent: application rate of 250 micrograms/ear
Method: (a) in a standard test involving the inhibition of inflammation on the mouse ear induced by the irritant, croton oil (Test A);
(a) Method: Groups of mice were dosed with an acetone solution of test compound or vehicle (acetone) pre-mixed with an equal volume of 4% w/v croton oil in acetone topically to the right ear (10 μl volume). Four hours later, the animals were killed and both the left (control) and right (treated) ears were removed and weighed. The percentage increase in ear weight of the treated against control was then calculated. The anti-inflammatory activity was finally expressed as percentage inhibition for the test compound dosed group in comparison with the vehicle dosed control group.

[3] = system: delayed hypersensitivity reaction to the contact irritant oxazolone; assay: Test B: inhibition of the delayed hypersensitivity reaction to oxazolone in mice; settings: for Inhibition: 24 hours, free base in acidified acetone pH 5
Method: (b) in a standard test involving the inhibition of the delayed hypersensitivity reaction to the contact irritant, 4-ethoxymethylene-2-phenyloxazolone (hereinafter referred to as oxazolone) in mice (Test B); and
(a) Method: Mice were sensitised by the topical application of a 10 μl portion of a 0.5% w/v solution of oxazolone in acetone. After 7 days, a 10 μl portion of a solution of the test compound in acetone (acidified to pH 5 with citric acid*) or, for control purposes, just the acidified acetone vehicle, was applied to the right ears of the mice and immediately followed by an application of 10 μl of 0.5% w/v solution of oxazolone in acetone. After 24 hours the animals were killed, the ears removed and results calculated as for Test A above.
*Note: acidified acetone was used to eliminate any possible reaction between the basic test compound of formula I and the oxazolone.]

[4] = Average of experiments 1-3, 2% w/v in acetone pH 5
[5] = Experiment 1, 2% w/v in acetone pH 5, listed as (-)-optically active (S) form
[6] = Experiment 2, 2% w/v in acetone pH 5
[7] = Experiment 3, 2% w/v in acetone pH 5
[8] = cream formulation II, 0.25% w/w
[9] = 1% w/v in aqueous ethanol containing 40% w/v N-methylpyrrolidone

CC(C)C(=O)NCCNCC(O)COc1ccccc1 (racemic) [compound of formula I, N-(2-[2-hydroxy-3-phenoxypropyl]aminoethyl)isobutyramide]
adverse effects on the cardiovasculature (cardiovasculature): no adverse effects on the cardiovasculature
overt toxic or adverse effects ([1]; during Test C): no overt toxic or adverse effects were observed

CC(C)C(=O)NCCNCC(O)COc1ccccc1 (racemic) [racemate, N-(2-[2-hydroxy-3-phenoxypropyl]aminoethyl)isobutyramide]
% Inhibition ([2]; 2.5 μg/ear): 25.6%
% increase in ear weight ± SEM ([2]; 2.5 μg/ear): 59.1 ± 5.92%
% Inhibition ([2]; 25 μg/ear): 49.3%
% increase in ear weight ± SEM ([2]; 25 μg/ear): 40.2 ± 4.88%
% Inhibition ([2]; 250 μg/ear): 61.8%
% increase in ear weight ± SEM ([2]; 250 μg/ear): 30.3 ± 4.0%
ED50 application rate [2]: 44 micrograms/ear

CC(C)C(=O)NCCNC[C@H](O)COc1ccccc1 [(-)-(S) form, (-)-N-(2-[2-hydroxy-3-phenoxypropyl]aminoethyl)isobutyramide]
% of sites in which erythema is inhibited by 30% [1, 4]: 71%
% of sites in which erythema is inhibited by 50% [1, 4]: 53%
% of sites in which erythema is inhibited by 70% [1, 4]: 16%
% of sites in which erythema is inhibited by 30% [1, 5]: 80% and 73%
% of sites in which erythema is inhibited by 50% [1, 5]: 60% and 36%
% of sites in which erythema is inhibited by 30% [1, 6]: 50%
% of sites in which erythema is inhibited by 50% [1, 6]: 50%
% of sites in which erythema is inhibited by 70% [1, 6]: 17%
% of sites in which erythema is inhibited by 30% [1, 7]: 83%
% of sites in which erythema is inhibited by 50% [1, 7]: 67%
% of sites in which erythema is inhibited by 70% [1, 7]: 17%
% of sites in which erythema is inhibited by 30% [1, 8]: 86%
% of sites in which erythema is inhibited by 50% [1, 8]: 29%
% of sites in which erythema is inhibited by 70% [1, 8]: 14%
% of sites in which erythema is inhibited by 30% ([1]; cream formulation II, 0.5% w/w): 86%
% of sites in which erythema is inhibited by 50% ([1]; cream formulation II, 0.5% w/w): 29%
% of sites in which erythema is inhibited by 70% ([1]; cream formulation II, 0.5% w/w): 29%
% of sites in which erythema is inhibited by 30% ([1]; cream formulation II, 1% w/w): 88%
% of sites in which erythema is inhibited by 50% ([1]; cream formulation II, 1% w/w): 75%
% of sites in which erythema is inhibited by 70% ([1]; cream formulation II, 1% w/w): 50%
% of sites in which erythema is inhibited by 30% ([1]; cream formulation II, 2% w/w): 100%
% of sites in which erythema is inhibited by 50% ([1]; cream formulation II, 2% w/w): 80%
% of sites in which erythema is inhibited by 70% ([1]; cream formulation II, 2% w/w): 80%
% Inhibition ([2]; 4.9 μg/ear): 23.8%
% increase in ear weight ± SEM ([2]; 4.9 μg/ear): 65.2 ± 3.17%
% Inhibition ([2]; 14.8 μg/ear): 46.5%
% increase in ear weight ± SEM ([2]; 14.8 μg/ear): 45.8 ± 3.96%
% Inhibition ([2]; 44.4 μg/ear): 52.2%
% increase in ear weight ± SEM ([2]; 44.4 μg/ear): 40.9 ± 4.02%
% Inhibition ([2]; 133.3 μg/ear): 66.5%
% increase in ear weight ± SEM ([2]; 133.3 μg/ear): 28.6 ± 3.56%
% Inhibition ([2]; 400 μg/ear): 91.8%
% increase in ear weight ± SEM ([2]; 400 μg/ear): 7.0 ± 1.25%
ED50 application rate [2]: 29 micrograms/ear
Inhibition ([3]; 2.5 μg/ear): 20 ± 8%
Inhibition ([3]; 25 μg/ear): 35 ± 9%
Inhibition ([3]; 250 μg/ear): 60 ± 7%
ED50 ([3]; calculated from the dose-inhibition table): 91 μg/ear

CCCCC(=O)O[C@]1(C(=O)CO)[C@@H](C)C[C@H]2[C@@H]3CCC4=CC(=O)C=C[C@]4(C)[C@@]3(F)[C@@H](O)C[C@@]21C [BV, betamethasone-17-valerate, reference compound]
% of sites in which erythema is inhibited by 30% [1, 9]: 75%
% of sites in which erythema is inhibited by 50% [1, 9]: 38%
% of sites in which erythema is inhibited by 70% [1, 9]: 25%

C[C@]12CCC(=O)C=C1CC[C@@H]1[C@@H]2[C@@H](O)C[C@@]2(C)[C@H]1CC[C@]2(O)C(=O)CO [hydrocortisone, reference compound]
% of sites in which erythema is inhibited by 30% [1, 9]: 67%
% of sites in which erythema is inhibited by 50% [1, 9]: 28%
% of sites in which erythema is inhibited by 70% [1, 9]: 6%
Inhibition ([2]; similar test conditions, 25 μg/ear): approximately 70%

CC(C)NCC(O)COc1cccc2ccccc12 (stereo not drawn) [propranolol, reference compound]
activity as topical anti-inflammatory agent [2]: inactive

CC(C)C(=O)NCCNC[C@@H](O)COc1ccccc1 [reference compound]
activity as topical anti-inflammatory agent [2]: inactive

O=C(NCCNCC(O)COc1ccc(O)cc1)N1CCOCC1 (stereo not drawn) [xamoterol, reference compound]
activity as topical anti-inflammatory agent [2]: inactive
